# Laboratory results: patent publication US20250129083A1, “IMIDAZOTETRAZINE COMPOUNDS AND TREATMENT OF TMZ-RESISTANT CANCERS” (THE BOARD OF TRUSTEES OF THE UNIVERSITY OF ILLINOIS, priority 2022, published 2025)
# Where two headings read alike, the source gives them in different places.
# Columns and labels:
# [1] = test system: U87 GBM cell line; assay: Cell viability assay (Alamar Blue, 7 days), U87; assay type: cell-based, human; settings: Homo sapiens, 168 h
# Method: (§1) Cell Culture and Reagents. All cell lines were grown in a 37° C., 5% CO2, humidified environment, in media containing 1% penicillin/streptomycin. Stable cell line generation of GL261 MGMT+ was purchased from Creative Biogene. Cell culture conditions are as follows: cell lines U87, T98G, and RKO were grown in EMEM with 10% FBS. D54, GL261, GL261 MGMT+, and U118MG cell lines were grown in DMEM with 10% FBS. HCT116 cells were grown in RMPI with 10% FBS. D341 Med cells were grown in EMEM with 20% FBS. Temozolomide (TMZ) was purchased from AK Scientific. TMZ analogues were synthesized as described below. Compounds were dissolved in DMSO (1% final concentration, Fisher Chemical) for cell culture studies.
# (§2) Cell Viability Assays. Cells were harvested, seeded in a 96-well plate and allowed to adhere. After three hours, compound was added to each well in DMSO (1% final concentration). Cells were incubated for seven days (unless otherwise noted) before viability was assessed by the Alamar Blue assay. Raptinal (20 μM) was used as a dead control.
# (§3) Plated 1500 c/w for GL261; 600 c/w for U87; 600 c/w for U118MG; 1500 c/w for GL261 MGMT+ Incubated ovn and added 1 μL of compound in DMSO the next day. Incubated over 7 days; added Alamar Blue to assess cell viability and used 10 μM Raptinal as dead control. Error is SEM, n=3.
# [2] = test system: GL261 cells; assay: Cell viability assay (Alamar Blue, 7 days), GL261; assay type: cell-based; settings: Mus musculus, GL261, 168 h
# Method: as §1, §2, §3
# [3] = test system: S. typhimurium TA100 strain; assay: Ames test, TA100; assay type: cell-based; settings: 30 μM; for Ames test revertant (mutated) colonies, TA100: 5 days, no S9 activation
# Method: Next, we measured the mutagenicity of CPZ versus TMZ. TMZ and other DNA methylating chemotherapies are known mutagens, inducing G:C→A:T mutations due to erroneous recognition of O^6-methylguanine. […] CPZ and TMZ (at 30 μM) were also assessed in the E. coli WP2 uvrA pKM101 strain, which is considered one of the more sensitive Ames tester strains available.
# Ames Test. Compounds were assessed at the indicated concentrations in the TA100 tester strain using the Muta-ChromoPlate 96-well microplate version of the Ames test (Environmental Bio-Detection Products, Prod. No. 5051) according to manufacturer's instructions. In brief, TA100 S. typhimurium bacteria were grown overnight and plated with compound, growth medium, and indicator (no S9 activation) in 96 well plates. Bacteria were incubated for 5 days before the number of wells per 96 well plate containing revertant colonies were identified colorimetrically.
# [4] = Assessment of hematological toxicity; assay type: in vivo
# Description: Arguably the most important question when designing an alkylating agent able to evade MGMT-mediated resistance is the resultant effect on hematological toxicity. MGMT operates as a systemic protectant against alkylating xenobiotics. […] Therefore, an MGMT-independent alkylating agent like CPZ could render off-target cells vulnerable to irreparable DNA alkylation and result in a similar degree of toxicity. We hypothesized that the increased BBB permeability of CPZ would divert enough of the drug to the brain such that it could be tolerated at a therapeutically useful dose. The hematological effects of a single dose of TMZ or CPZ were compared head-to-head in vivo. Mice were treated with 125 mg/kg TMZ or CPZ intravenously; this dose was selected because 125 mg/kg TMZ is known to induce nonlethal toxicity in mice. After 7 days, the mice were sacrificed and complete blood counts were obtained. […] Additionally, the maximum tolerated dose (MTD) of CPZ was determined to be 66 mg/kg when dosed intraperitoneally (IP), once-per-day over five days. This matches the reported MTD of TMZ at the same schedule (˜66 mg/kg).
# Assessment of Hematological Toxicity. Male CD-1 IGS mice (n≥3 mice/group) were administered a single dose of 125 mg/kg compound intravenously. Imidazotetrazines were formulated with DMSO, Tween-20, and 30% (w/v) SBE-PCD in sterile water immediately prior to injection. […]
# [5] = Hepatic metabolism: stability in mouse liver microsomes; assay type: in vitro ADME
# [6] = Brain tissue binding; assay type: in vitro ADME; settings: 10 uM, 1 h at 37 C in brain tissue homogenate
# [7] = Syngeneic subcutaneous model; assay type: in vivo; settings: C57BL/6 mice, 1×10^6 cells; 50 mg/kg IV 1×/day over 5 days from day 5
# Method: FIG. 10A-B. Syngeneic Subcutaneous Model (A, B). TABZ and TMZ in vivo: C57BL/6 mice were inoculated with 1×10^6 cells and treated xl/day over 5 days with either vehicle, TMZ, or TABZ (via IV, 50 mg/kg, starting on day 5).
# [8] = cited from earlier work
# [9] = in vivo; settings: CD-1 IGS, mouse, brain and serum, iv, 25 mg/kg
# Method: (§4) Biodistribution and Toxicity Studies. […] Brain tissue and blood were collected from each mouse and immediately acidified to prevent prodrug degradation. The concentration of each compound in the serum (FIG. 4A) and brain (FIG. 4B) were quantified by LC-MS/MS.
# (§5) CD-1 IGS mice were administered compound in 5% DMSO, 10% Tween-20, and 85% SPE-PCD in sterile water (30% w/v) at 25 mg/kg via lateral tail vein injection. Fifteen minutes post injection, mice were sacrificed and blood was collected by lacerating the right auricle with iris scissors. An 18 gauge angiocatheter was inserted through the left ventricle, and all residual circulatory volume was removed by perfusing 0.9% saline solution via an analog peristaltic pump. Blood samples were immediately centrifuged at 13,000 rcf for five minutes and the supernatant collected and acidified with 8.5% aqueous H3PO4. Brains were harvested from the cranial vault, acidified with 0.3% aqueous H3PO4 and flash frozen. Homogenized brain samples were centrifuged twice at 13,000 rcf for ten minutes and supernatant and tissue debris were separated. The resultant supernatant was analyzed, along with plasma, by LC-MS/MS to determine compound concentrations.
# [10] = test system: cancer cells; assay: Rapid cancer cell death phenotype; assay type: cell-based; settings: relative to TMZ
# Description: FIG. 8A-C. Rapid Cancer Cell Death Phenotype.
# [11] = Blood-brain barrier permeability; settings: mice; 25 mg/kg IV; 15 minutes
# Method: as §4, §5
# [12] = MGMT (−) MMR (+), 600 c/w, SEM, n=3, read-out: Activity, U87
# [13] = 7 day dose-response, read-out: IC50, GL261 (parental)
# [14] = MGMT (−) MMR (+), 7 days, 1500 c/w, SEM, n=3, read-out: Activity, GL261
Compound,"IC50 [1, 12] [µM]","IC50 ([1]; MGMT (−), Alamar Blue, error SEM, n ≥ 3, read-out: Seven-day IC50, U87) [µM]","IC50 [2, 13] [µM]","IC50 [2, 14] [µM]","Mutagenicity, TA100 [3]","Ames test revertant (mutated) colonies, TA100 [3]","White blood cell, lymphocyte, and neutrophil counts ([4]; mice, single 125 mg/kg IV dose, 7 days)","Stability (2 h, with MLM) ([5]; percentage remaining relative to t0, mouse liver microsomes, SEM, n ≥ 2) [%]","Stability (2 h, no MLM) ([5]; percentage remaining, microsomes replaced with PBS) [%]","Brain tissue binding, insoluble fraction, tissue homogenizer [6] [%]","Brain tissue binding, insoluble fraction, ultrasonication [6] [%]","Brain tissue binding, soluble fraction, tissue homogenizer [6] [%]","Brain tissue binding, soluble fraction, ultrasonication [6] [%]",Tumor growth [7],Half-life in vivo (human pharmacokinetics) ([8]; human patients) [h],Cerebral spinal fluid concentration as percentage of plasma concentration ([8]; humans),Kp at 15 min [9],"Other hematological symptoms such as thrombocytopenia ([4]; mouse, in vivo, iv, 125 mg/kg)",Speed of cell death induction [10],Increase in brain distribution relative to TMZ [11] [fold]
"Cn1nnc2c(C(N)=O)ncn2c1=O [TMZ, temozolomide, reference compound]",51 ± 8,~50,120,120 ± 62,mutagenic,35/96,"depletions in white blood cells, lymphocytes, and neutrophils",95 ± 1,92 ± 0.2,40 ± 5,30 ± 3,59 ± 5,66 ± 3,exacerbation of tumor growth,1.5 to 2,about 20%,0.08 ± 0.01,–,–,–
"C#CCn1nnc2c(Cl)ncn2c1=O [CPZ, 8-chloro-3-(prop-2-yn-1-yl)imidazo[5,1-d][1,2,3,5]tetrazin-4(3H)-one]",16 ± 6,–,28,28 ± 3,non-mutagenic,no revertant colonies,–,–,–,–,–,–,–,–,–,–,1.2 ± 0.2,did not give rise to other hematological symptoms such as thrombocytopenia,induce cell death quickly relative to TMZ,> 10
